One compound from patent publication US20190008864A1, “PHARMACEUTICAL COMPOSITION CONTAINING GPR119 LIGAND AS EFFECTIVE INGREDIENT FOR PREVENTING OR TREATING NON-ALCOHOLIC STEATOHEPATITIS” (PHARMEDIX.CO., LTD., priority 2014, published 2019) can be followed below.

For this assay, the system named is non-alcoholic steatohepatitis (NASH) animal models induced by methionine-choline deficient diet. Kind of assay: NASH animal model induced by methionine-choline deficient diet. The format is in vivo, C57BL/6J mice. Particulars: MCD diet 4 weeks, 10 and 30 mg/kg oral. The source says:
A liver fibrosis-inducing diet in the present invention is a methionine and choline-deficient (MCD) diet. Six-week-old male C57BL/6J mice (Central Lab. Animal Inc., Seoul, Korea) were acclimated to an experimental environment for one week while being fed solid food, and then randomly divided into a control group and an experimental group for the MCD diet using a randomized block design. The animal groups were fed for 4 weeks, and thus, liver fibrosis animal models were established. Liver fibrosis development was determined according to blood biochemical and histochemical analysis methods. The mice were orally fed once a day for five days every week with a GPR119 ligand (10 mg/kg and 30 mg/kg), which was suspended in 40% PEG400, in combination with the MCD diet. After terminating the experiment, the experimental animals fasted for 12 hours or more. Subsequently, blood and liver samples were collected from the animals, which had been anesthetized with diethyl ether, and then washed with a 0.1 M phosphate buffered saline (pH 7.4), followed by being weighed. […] Serum Lactate dehydrogenase (LDH) from the experimental animals raised for 4 weeks was measured as follows. The serum LDH was measured using a commercially available measurement kit (Bio Clinical system). […] Steatosis, ballooning, and lobular inflammation were blindly assessed by pathologists.

As to `CCc1cnc(N2CCC(c3nc(COc4ccc(-n5cnnn5)cc4)cs3)CC2)nc1` [MBX2982, 4-((4-(1H-tetrazol-1-yl)phenoxy)methyl)-2-(1-(5-ethylpyrimidin-2-yl)piperidin-4-yl)thiazole], the “lobular inflammation (NAFLD activity score)” value is recorded as “inhibited” and the “other markers (steatosis, ballooning, serum LDH)” value is “did not show significant changes”.
